According to patent publication US20240299387A1, “HETEROCYCLIC EGFR INHIBITORS FOR USE IN THE TREATMENT OF CANCER” (Blueprint Medicines Corporation, priority 2021, published 2024):
Read-outs that look alike come from different tables or passages of the source.

Key:
EGFR (L858R T790M C797S) = target: T1, EGFR (L858R T790M C797S) (Homo sapiens, UniProt P00533, C797S/L858R/T790M); test: Biochemical EGFR inhibition assay (Caliper mobility shift), EGFR LRTMCS mutant
T1 construct: purchased SignalChem E10-122VG
Protocol: Reactions proceeded until between 10% to 20% total peptides were phosphorylated at room temperature (25° C.) and were terminated with 35 mM 2,2′,2″,2′″-(ethane-1,2-diyldinitrilo)tetraacetic acid (EDTA). Product was detected using the Caliper mobility shift detection method where the phosphorylated peptide (product) and substrate were electrophoretically separated and measured. Percent activity was plotted against log concentration of compound and points to generate an apparent IC50.

[1] = target: T2, EGFR L858R T790M in NCI-H1975 cell line (Homo sapiens, UniProt P00533, L858R/T790M); test: NCI-H1975 pEGFR AlphaLISA assay; format: cell-based; conditions: NCI-H1975 cells (EGFR L858R T790M), p-EGFR (Tyr1068), 4-5 hours incubation; read-out: Ext pEGFR H1975 GMean IC50 (nM) Protocol: @Pharmaron AlphaLISA (Num)
T2 construct: host or cells: NCI-H1975
Protocol: The NCI-H1975 cells were seeded at 12.5K/well in 22 μL into 384 well opti plate (PerkinElmer, 6007299) and adhering overnight at 37C/5% CO2. On the next day, the test compounds and DMSO control were added into H1975 cell plate followed by incubation at 37C/5% CO2 for 4-5 hours. […] Then 5 μL of a donor bead mix was added to each well followed by overnight incubation at room temperature in dark. On the next day, the plate was read at a compatible plate reader to obtain pEGFR signal. Percent of pEGFR inhibition was plotted against log concentration of compounds to generate IC50 values.

[2] = LRTMCS (PH) IC50 (nM) @ 1 mM ATP (Num)
[3] = read-out: LRTMCS (PH) IC50 (nM) @ 1 mM ATP (Num)

T2 sequence (P00533 25-1210 T790M/L858R): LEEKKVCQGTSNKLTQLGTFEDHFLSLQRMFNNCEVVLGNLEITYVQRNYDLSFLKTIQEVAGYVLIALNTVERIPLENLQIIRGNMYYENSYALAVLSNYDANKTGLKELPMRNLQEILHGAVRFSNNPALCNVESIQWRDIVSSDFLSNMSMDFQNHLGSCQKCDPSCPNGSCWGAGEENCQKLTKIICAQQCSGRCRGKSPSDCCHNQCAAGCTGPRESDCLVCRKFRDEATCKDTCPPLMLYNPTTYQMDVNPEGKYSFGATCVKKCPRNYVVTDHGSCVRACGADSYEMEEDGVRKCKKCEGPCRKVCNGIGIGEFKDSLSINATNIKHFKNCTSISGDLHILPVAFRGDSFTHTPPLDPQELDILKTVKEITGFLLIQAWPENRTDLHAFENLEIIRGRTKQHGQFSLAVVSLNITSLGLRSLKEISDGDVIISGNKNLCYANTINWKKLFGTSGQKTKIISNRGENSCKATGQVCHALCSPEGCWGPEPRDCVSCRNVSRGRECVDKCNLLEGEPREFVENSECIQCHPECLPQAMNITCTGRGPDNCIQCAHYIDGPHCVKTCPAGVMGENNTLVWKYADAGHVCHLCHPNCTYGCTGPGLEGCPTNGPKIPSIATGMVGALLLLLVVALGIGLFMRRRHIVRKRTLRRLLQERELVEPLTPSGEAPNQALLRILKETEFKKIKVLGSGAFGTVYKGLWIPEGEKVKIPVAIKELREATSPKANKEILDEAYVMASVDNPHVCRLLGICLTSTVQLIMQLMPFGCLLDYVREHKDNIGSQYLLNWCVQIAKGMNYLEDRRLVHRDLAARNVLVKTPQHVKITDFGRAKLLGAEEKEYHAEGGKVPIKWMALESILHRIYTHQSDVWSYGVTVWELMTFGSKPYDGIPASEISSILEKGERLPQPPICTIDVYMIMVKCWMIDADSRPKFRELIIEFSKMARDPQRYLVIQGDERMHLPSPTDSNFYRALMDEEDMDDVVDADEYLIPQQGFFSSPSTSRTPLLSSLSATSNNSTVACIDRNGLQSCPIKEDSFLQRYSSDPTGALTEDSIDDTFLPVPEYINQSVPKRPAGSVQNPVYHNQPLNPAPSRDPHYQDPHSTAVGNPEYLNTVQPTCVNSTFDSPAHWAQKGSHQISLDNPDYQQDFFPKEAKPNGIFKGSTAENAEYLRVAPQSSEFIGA
T1 sequence (P00533 25-1210 T790M/C797S/L858R): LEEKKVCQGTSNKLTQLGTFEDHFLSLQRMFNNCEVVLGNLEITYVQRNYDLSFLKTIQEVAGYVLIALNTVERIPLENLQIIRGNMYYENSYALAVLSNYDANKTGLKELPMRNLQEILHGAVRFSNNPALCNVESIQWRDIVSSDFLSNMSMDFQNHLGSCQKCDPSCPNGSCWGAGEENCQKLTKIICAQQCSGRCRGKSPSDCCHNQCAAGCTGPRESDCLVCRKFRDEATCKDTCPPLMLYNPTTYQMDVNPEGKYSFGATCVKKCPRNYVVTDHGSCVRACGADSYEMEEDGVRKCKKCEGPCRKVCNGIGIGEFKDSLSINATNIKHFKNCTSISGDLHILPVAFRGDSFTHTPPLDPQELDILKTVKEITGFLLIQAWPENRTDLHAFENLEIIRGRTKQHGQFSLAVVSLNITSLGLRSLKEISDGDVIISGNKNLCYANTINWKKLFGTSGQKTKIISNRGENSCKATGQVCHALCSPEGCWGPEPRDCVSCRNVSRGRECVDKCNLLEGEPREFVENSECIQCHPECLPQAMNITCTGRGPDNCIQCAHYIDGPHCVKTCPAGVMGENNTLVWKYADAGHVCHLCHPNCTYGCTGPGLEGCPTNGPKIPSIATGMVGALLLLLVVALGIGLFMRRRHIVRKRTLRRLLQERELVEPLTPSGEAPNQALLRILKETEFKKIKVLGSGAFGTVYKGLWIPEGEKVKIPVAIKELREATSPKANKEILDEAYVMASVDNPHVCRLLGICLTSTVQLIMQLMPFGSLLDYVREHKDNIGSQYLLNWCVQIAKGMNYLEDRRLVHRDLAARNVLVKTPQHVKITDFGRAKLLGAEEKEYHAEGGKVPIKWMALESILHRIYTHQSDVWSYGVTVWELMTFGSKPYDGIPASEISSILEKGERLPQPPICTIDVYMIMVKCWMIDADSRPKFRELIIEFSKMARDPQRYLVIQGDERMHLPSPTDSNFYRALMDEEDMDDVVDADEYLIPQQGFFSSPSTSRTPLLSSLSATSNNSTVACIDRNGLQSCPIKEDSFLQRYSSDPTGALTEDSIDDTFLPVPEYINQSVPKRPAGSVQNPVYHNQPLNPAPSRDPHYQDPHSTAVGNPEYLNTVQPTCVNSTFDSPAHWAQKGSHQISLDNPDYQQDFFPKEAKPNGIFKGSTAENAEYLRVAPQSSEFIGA

| SMILES | IC50 (EGFR (L858R T790M C797S); [2]) [nM] | IC50 [1] [nM] | IC50 (EGFR (L858R T790M C797S); [3]) [nM] |
| --- | --- | --- | --- |
| CC(C)c1cnc(C(=O)N[C@H]2C[C@@](C)(O)C2)c2cnc(Nc3ccnc(N4CC[C@@H](O)[C@@](C)(F)C4)n3)cc12 [Example 83, 6-((2-((3S,4R)-3-fluoro-4-hydroxy-3-methylpiperidin-1-yl)pyrimidin-4-yl)amino)-N-((1s,3s)-3-hydroxy-3-methylcyclobutyl)-4-isopropyl-2,7-naphthyridine-1-carboxamide] | < 15 | 30 to 50 |  |
| CC(C)c1cnc(C(N)=O)c2cnc(Nc3ccnc(N4CC[C@@H](O)[C@@](C)(F)C4)n3)cc12 (single isomer, unassigned) [Example 61, 6-((2-((3S,4R)-3-fluoro-4-hydroxy-3-methylpiperidin-1-yl)pyrimidin-4-yl)amino)-4-isopropyl-2,7-naphthyridine-1-carboxamide or 6-((2-((3R,4S)-3-fluoro-4-hydroxy-3-methylpiperidin-1-yl)pyrimidin-4-yl)amino)-4-isopropyl-2,7-naphthyridine-1-carboxamide] | 20 to 30 | > 50 |  |
| CC(=O)N1CC(COc2ccc(C(C)C)c3cc(Nc4ccnc(N5CC[C@@H](O)[C@@](C)(F)C5)n4)ncc23)C1 [Example 8, 1-(3-(((3-((2-((3S,4R)-3-fluoro-4-hydroxy-3-methylpiperidin-1-yl)pyrimidin-4-yl)amino)-5-isopropylisoquinolin-8-yl)oxy)methyl)azetidin-1-yl)ethan-1-one] | < 15 | < 10 |  |
| CC(C)c1cnc(Nc2cnn(C)c2)c2cnc(Nc3ccnc(N4CC[C@@H](O)[C@@](C)(F)C4)n3)cc12 [Example 6, (3S,4R)-3-fluoro-1-(4-((5-isopropyl-8-((1-methyl-1H-pyrazol-4-yl)amino)-2,7-naphthyridin-3-yl)amino)pyrimidin-2-yl)-3-methylpiperidin-4-ol] | 20 to 30 | > 50 |  |
| CC(C)c1cnc(C(=O)N[C@@H](C)CF)c2cnc(Nc3ccnc(N4CC[C@@H](O)[C@@](C)(F)C4)n3)cc12 [Example 72, 6-((2-((3S,4R)-3-fluoro-4-hydroxy-3-methylpiperidin-1-yl)pyrimidin-4-yl)amino)-N-((S)-1-fluoropropan-2-yl)-4-isopropyl-2,7-naphthyridine-1-carboxamide] | 15 to 20 | > 50 |  |
| CC(C)c1cnc(C(=O)NC2CC(F)(F)C2)c2cnc(Nc3ccnc(N4CC[C@@H](O)[C@@](C)(F)C4)n3)cc12 [Example 75, N-(3,3-difluorocyclobutyl)-6-((2-((3S,4R)-3-fluoro-4-hydroxy-3-methylpiperidin-1-yl)pyrimidin-4-yl)amino)-4-isopropyl-2,7-naphthyridine-1-carboxamide] | < 15 | 30 to 50 |  |
| CC(C)c1cnc(C(=O)N[C@H]2C[C@H](O)C2)c2cnc(Nc3ccnc(N4CC[C@@H](O)[C@@](C)(F)C4)n3)cc12 [Example 79, 6-((2-((3S,4R)-3-fluoro-4-hydroxy-3-methylpiperidin-1-yl)pyrimidin-4-yl)amino)-N-((1r,3r)-3-hydroxycyclobutyl)-4-isopropyl-2,7-naphthyridine-1-carboxamide] | < 15 | 30 to 50 |  |
| CC(C)c1cnc(C(=O)NCC(C)(C)O)c2cnc(Nc3ccnc(N4CC[C@@H](O)[C@@](C)(F)C4)n3)cc12 [Example 70, 6-((2-((3S,4R)-3-fluoro-4-hydroxy-3-methylpiperidin-1-yl)pyrimidin-4-yl)amino)-N-(2-hydroxy-2-methylpropyl)-4-isopropyl-2,7-naphthyridine-1-carboxamide] | 30 to 100 | > 50 |  |
| CC(C)c1cnc(N(C)C)c2cnc(Nc3ccnc(N4CC[C@@H](O)[C@@H](F)C4)n3)cc12 [Example 94, (3S,4R)-1-(4-((8-(dimethylamino)-5-isopropyl-2,7-naphthyridin-3-yl)amino)pyrimidin-2-yl)-3-fluoropiperidin-4-ol] | 30 to 100 | > 50 |  |
| CC(=O)N1CC(C)(COc2ccc(C(C)C)c3cc(Nc4ccnc(N5CC[C@@H](O)[C@@](C)(F)C5)n4)ncc23)C1 [Example 7, 1-(3-(((3-((2-((3S,4R)-3-fluoro-4-hydroxy-3-methylpiperidin-1-yl)pyrimidin-4-yl)amino)-5-isopropylisoquinolin-8-yl)oxy)methyl)-3-methylazetidin-1-yl)ethan-1-one] | 15 to 20 | 30 to 50 |  |
| CC(C)c1cnc(C(=O)NCC(F)F)c2cnc(Nc3ccnc(N4CC[C@@H](O)[C@@](C)(F)C4)n3)cc12 [Example 67, N-(2,2-difluoroethyl)-6-((2-((3S,4R)-3-fluoro-4-hydroxy-3-methylpiperidin-1-yl)pyrimidin-4-yl)amino)-4-isopropyl-2,7-naphthyridine-1-carboxamide] | < 15 | > 50 |  |
| CC(C)c1cnc(C(=O)N[C@H]2CN(C)C[C@H]2F)c2cnc(Nc3ccnc(N4CC[C@@H](O)[C@@](C)(F)C4)n3)cc12 (single isomer, unassigned) [Example 88] |  | 10 to 20 | < 15 |

The remaining lines, values ahead:

| IC50 (EGFR (L858R T790M C797S); [2]) [nM] | IC50 [1] [nM] | IC50 (EGFR (L858R T790M C797S); [3]) [nM] | SMILES |
| --- | --- | --- | --- |
| 15 to 20 | 30 to 50 |  | CC(C)c1ccc(OC[C@@H](C)n2cnnc2)c2cnc(Nc3ccnc(N4CC[C@](C)(O)[C@H](F)C4)n3)cc12 [Example 37, (3R,4S)-1-(4-((8-((R)-2-(4H-1,2,4-triazol-4-yl)propoxy)-5-isopropylisoquinolin-3-yl)amino)pyrimidin-2-yl)-3-fluoro-4-methylpiperidin-4-ol] |
| 15 to 20 | > 50 |  | CC(C)c1ccc(OC[C@H](C)n2cnnc2)c2cnc(Nc3ccnc(N4CC[C@](C)(O)[C@H](F)C4)n3)cc12 [Example 36, (3R,4S)-1-(4-((8-((S)-2-(4H-1,2,4-triazol-4-yl)propoxy)-5-isopropylisoquinolin-3-yl)amino)pyrimidin-2-yl)-3-fluoro-4-methylpiperidin-4-ol] |
| 15 to 20 | > 50 |  | CC(C)c1ccc(OCCc2cncn2C)c2cnc(Nc3ccnc(N4CC[C@](C)(O)[C@H](F)C4)n3)cc12 [Example 38, (3R,4S)-3-fluoro-1-(4-((5-isopropyl-8-(2-(1-methyl-1H-imidazol-5-yl)ethoxy)isoquinolin-3-yl)amino)pyrimidin-2-yl)-4-methylpiperidin-4-ol] |
| 15 to 20 | > 50 |  | CC(C)c1ccc(OCCn2cncn2)c2cnc(Nc3ccnc(N4CC[C@](C)(O)[C@H](F)C4)n3)cc12 [Example 39, (3R,4S)-1-(4-((8-(2-(1H-1,2,4-triazol-1-yl)ethoxy)-5-isopropylisoquinolin-3-yl)amino)pyrimidin-2-yl)-3-fluoro-4-methylpiperidin-4-ol] |
| 15 to 20 | > 50 |  | CC(C)c1ccc(OC[C@H]2COC(=O)N2C)c2cnc(Nc3ccnc(N4CC[C@@](C)(O)[C@@H](F)C4)n3)cc12 (single isomer, unassigned) [Example 22] |
| < 15 | > 50 |  | CC(C)c1ccc(OCCn2ccnc2)c2cnc(Nc3ccnc(N4CCC(C)(O)CC4)n3)cc12 [Example 17, 1-(4-((8-(2-(1H-imidazol-1-yl)ethoxy)-5-isopropylisoquinolin-3-yl)amino)pyrimidin-2-yl)-4-methylpiperidin-4-ol] |
| < 15 | 30 to 50 |  | Cc1nccn1CCOc1ccc(C(C)C)c2cc(Nc3ccnc(N4CC[C@@](C)(O)[C@@H](F)C4)n3)ncc12 [Example 13, (3S,4R)-3-fluoro-1-(4-((5-isopropyl-8-(2-(2-methyl-1H-imidazol-1-yl)ethoxy)isoquinolin-3-yl)amino)pyrimidin-2-yl)-4-methylpiperidin-4-ol] |
|  | 30 to 50 | 15 to 20 | CC(C)c1ccc(OC[C@H]2COC(=O)N2C)c2cnc(Nc3ccnc(N4CC[C@@](C)(O)[C@@H](F)C4)n3)cc12 (single isomer, unassigned) [Example 23] |
| < 15 | 20 to 30 |  | CO[C@H]1CCN(c2nccc(Nc3cc4c(C(C)C)ccc(OCCn5cnnc5)c4cn3)n2)C[C@H]1F [Example 41, 8-(2-(4H-1,2,4-triazol-4-yl)ethoxy)-N-(2-((3R,4S)-3-fluoro-4-methoxypiperidin-1-yl)pyrimidin-4-yl)-5-isopropylisoquinolin-3-amine] |
| 15 to 20 | > 50 |  | [2H]C([2H])([2H])O[C@@H]1CCN(c2nccc(Nc3cc4c(C(C)C)ccc(OCCn5cnnc5)c4cn3)n2)C[C@@H]1F [Example 45, 8-(2-(4H-1,2,4-triazol-4-yl)ethoxy)-N-(2-((3S,4R)-3-fluoro-4-(methoxy-d3)piperidin-1-yl)pyrimidin-4-yl)-5-isopropylisoquinolin-3-amine] |
| 20 to 30 | > 50 |  | CC(=O)N1CC(COc2ccc(C(C)C)c3cc(Nc4ccnc(N5CCC(C)(O)CC5)n4)ncc23)C1 [Example 14, 1-(3-(((3-((2-(4-hydroxy-4-methylpiperidin-1-yl)pyrimidin-4-yl)amino)-5-isopropylisoquinolin-8-yl)oxy)methyl)azetidin-1-yl)ethanone] |
| < 15 | 20 to 30 |  | CC(C)c1ccc(OCCn2ccnc2)c2cnc(Nc3ccnc(N4CC[C@](C)(O)[C@H](F)C4)n3)cc12 [Example 29, (3R,4S)-1-(4-((8-(2-(1H-imidazol-1-yl)ethoxy)-5-isopropylisoquinolin-3-yl)amino)pyrimidin-2-yl)-3-fluoro-4-methylpiperidin-4-ol] |
